Molecular target: T1, L106-tsLuc (FKBP L106P destabilizing domain fused to luciferase) in HCT116 cells (Homo sapiens, UniProt P62942, F37V)
T1 construct: expressed in transfected cells; host or cells: HCT116
Assay: Luciferase stabilization assay in HCT116 cells stably transfected with L106-tsLuc
Format: cell-based
Details: 24 hour incubation, 3-fold dilutions, 10 μM to 12 nM, BrightGlo readout, read-out: luciferase activity, expressed in IC50 values
Procedure: The compounds were assayed for their ability to bind to the destabilizing domain of the protein according the following procedure:
HCT116 cells stably transfected with L106-tsLuc were cultured in DMEM media containing 10% fetal bovine serum. 7,000 cells/well were seeded in 100 μL of DMEM/10% FBS media in a 96-well plate and incubated overnight at 37° C. in a humidified, 5% CO2 incubator. Media was replaced with fresh 100 μL of fresh DMEM/10% FBS media containing various concentrations of Shield-1, and the compounds of Example 6 (Ic), and Example 9 (Id) Compounds were added at 3-fold dilutions, concentrations ranging from 10 μM to 12 nM. After 24 hour incubation with the compounds at 37° C. in a humidified, 5% CO2 incubator, luciferase activity was measured in a luminometer after the addition of 100 μL/well BrightGlo reagent (Promega).

T1 sequence (P62942 with tags, fused parts or gaps F37V limits assumed): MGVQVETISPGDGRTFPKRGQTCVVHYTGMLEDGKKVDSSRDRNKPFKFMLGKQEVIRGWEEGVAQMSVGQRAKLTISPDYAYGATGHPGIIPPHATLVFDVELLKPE

IC50	Compound
< 10 nM	CC[C@H](C(=O)N1CCCC[C@H]1C(=O)OC(CCc1ccc(OC)c(OC)c1)c1cccc(OCCN2CCOCC2)c1)c1cc(OC)c(OC)c(OC)c1 (stereo partly drawn) [Shield-1, reference compound]
< 10000 nM	CCN(C(=O)N1CCCC[C@H]1C(=O)N[C@H](CCc1ccc(OC)c(OC)c1)c1cccc(OCCN2CCOCC2)c1)c1ccccc1 [Example 9 (Id)]
< 100 nM	CC[C@H](C(=O)N1CCCC[C@H]1C(=O)N[C@H](CCc1ccc(OC)c(OC)c1)c1cccc(OCCN2CCOCC2)c1)c1cc(OC)c(OC)c(OC)c1 [Example 6 (Ic)]

From patent US8153785B2, “Stabilizing ligands for regulation of protein function” (Cheminpharma LLC, priority 2009, dated 2012)
